# According to patent US8022091B2, “Triazole derivative” (Taisho Pharmaceutical Co., Ltd., priority 2006, dated 2011):
# Molecular target: T1, human Edg-1 (S1P1) (Homo sapiens, UniProt P21453)
# T1 construct: expressed in transfected cells; host or cells: HEK-293
# Assay: S1P1 binding assay: inhibition of [33P]-S1P binding to membrane fraction of HEK-293 cells transferred with the human Edg-1 (S1P1) gene
# Settings: test compound 10 μM; inhibition of [33P]-S1P binding, membrane fraction
# Outline: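 With 0.1 nM [33P]-S1P and compound (10^−5M single point, or a concentration range for IC50) in 0.1% DMSO, membrane fractions from human Edg-1-expressing HEK-293 cells were treated for one hour at 30° C in 20 mM Tris-HCl pH 7.4 with NaF, deoxypyridoxine and BSA. Bound label was measured after filtration, with untransfected-cell background subtracted.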
# T1 sequence (P21453 whole entry): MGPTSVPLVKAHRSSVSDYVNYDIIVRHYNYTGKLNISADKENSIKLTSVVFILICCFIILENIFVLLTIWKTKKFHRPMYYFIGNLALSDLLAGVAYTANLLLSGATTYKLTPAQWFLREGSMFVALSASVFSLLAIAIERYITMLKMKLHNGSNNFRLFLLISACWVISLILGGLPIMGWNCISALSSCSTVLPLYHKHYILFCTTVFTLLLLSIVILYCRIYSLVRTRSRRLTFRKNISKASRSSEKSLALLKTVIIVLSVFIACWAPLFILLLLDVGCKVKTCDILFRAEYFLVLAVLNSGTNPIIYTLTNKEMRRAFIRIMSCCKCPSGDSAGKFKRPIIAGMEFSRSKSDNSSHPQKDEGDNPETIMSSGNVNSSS
row,Structure (SMILES),inhibition at 10 µM [%]
1,CCn1c(Oc2cccc(N3CCN(C)CC3)c2)nnc1[C@@H](C)NS(=O)(=O)c1cccc(Cl)c1 [Compound 572],96.5
2,CCn1c(Oc2cccc(N3CCN(C)CC3)c2)nnc1[C@@H](C)NS(=O)(=O)c1ccc(C(C)C)cc1 [Compound 573],86.3
3,CCc1cc(Br)ccc1S(=O)(=O)N[C@H](C)c1nnc(Oc2cccc(N3CCN(C)CC3)c2)n1CC [Compound 574],86.9
4,CCn1c(Oc2cccc(N3CCN(C)CC3)c2)nnc1[C@@H](C)NS(=O)(=O)c1ccc(Br)cc1C [Compound 575],104
5,CCn1c(Oc2cccc(N3CCN(C)CC3)c2)nnc1[C@@H](C)NS(=O)(=O)c1ccc(C#N)cc1Cl [Compound 576],81.4
6,CCn1c(Oc2cccc(N3CCN(C)CC3)c2)nnc1[C@@H](C)NS(=O)(=O)c1ccc(F)c(F)c1F [Compound 577],92.4
7,CCn1c(Oc2cccc(N3CCN(C)CC3)c2)nnc1[C@@H](C)NS(=O)(=O)c1c(Cl)cc(C(F)(F)F)cc1Cl [Compound 579],87.6
8,CCn1c(Oc2cccc(N3CCN(C)CC3)c2)nnc1[C@@H](C)NS(=O)(=O)c1cc(F)c(F)cc1Cl [Compound 580],89.2
9,CCn1c(Oc2cccc(N3CCN(C)CC3)c2)nnc1[C@@H](C)NS(=O)(=O)c1ccc(F)c(F)c1 [Compound 581],99.9
10,CCn1c(Oc2cccc(N3CCN(C)CC3)c2)nnc1[C@@H](C)NS(=O)(=O)c1ccc(Br)cc1F [Compound 582],106
11,CCn1c(Oc2cccc(N3CCN(C)CC3)c2)nnc1[C@@H](C)NS(=O)(=O)c1cc(F)c(Cl)cc1F [Compound 583],109
12,CCn1c(Oc2cccc(N3CCN(C)CC3)c2)nnc1[C@@H](C)NS(=O)(=O)Cc1ccc(Cl)c(Cl)c1 [Compound 586],87.9
13,CCn1c(Oc2cccc(N3CCN(C)CC3)c2)nnc1[C@@H](C)NS(=O)(=O)CC(c1ccccc1)c1ccccc1 [Compound 587],60
14,CCn1c(Oc2cccc(N3CCN(C)CC3)c2)nnc1[C@@H](C)NS(=O)(=O)c1cc(C)c(Cl)cc1Cl [Compound 588],109
15,CCn1c(Oc2cccc(N3CCN(C)CC3)c2)nnc1[C@@H](C)NS(=O)(=O)c1c(F)c(Br)cc(F)c1Br [Compound 589],80.2
16,CCn1c(Oc2cccc(N3CCN(C)CC3)c2)nnc1[C@@H](C)NS(=O)(=O)c1c(F)cccc1F [Compound 590],62.3
17,CCn1c(Oc2cccc(N3CCN(C)CC3)c2)nnc1[C@@H](C)NS(=O)(=O)c1cc(C(F)(F)F)ccc1Cl [Compound 591],77.5
18,CCn1c(Oc2cccc(N3CCN(C)CC3)c2)nnc1[C@@H](C)NS(=O)(=O)c1cccc(F)c1 [Compound 592],95.8
19,CCn1c(Oc2cccc(N3CCN(C)CC3)c2)nnc1[C@@H](C)NS(=O)(=O)c1ccc(NC(C)=O)c(Cl)c1 [Compound 593],65.9
20,CCn1c(Oc2cccc(N3CCN(C)CC3)c2)nnc1[C@@H](C)NS(=O)(=O)c1cc(Cl)ccc1OC [Compound 594],84
21,CCn1c(Oc2cccc(N3CCN(C)CC3)c2)nnc1[C@@H](C)NS(=O)(=O)c1c(C)cc(Cl)cc1Cl [Compound 595],93.7
22,CCn1c(Oc2cccc(N3CCN(C)CC3)c2)nnc1[C@@H](C)NS(=O)(=O)c1cc(F)c(F)cc1F [Compound 596],100

row,Structure (SMILES),inhibition at 10 µM [%]
1,CCn1c(Oc2cccc(N3CCN(C)CC3)c2)nnc1[C@@H](C)NS(=O)(=O)c1cc(Br)ccc1Br [Compound 597],97.3
2,CCn1c(Oc2cccc(N3CCN(C)CC3)c2)nnc1[C@@H](C)NS(=O)(=O)c1ccc(-c2ccno2)s1 [Compound 598],89.5
3,CCn1c(Oc2cccc(N3CCN(C)CC3)c2)nnc1[C@@H](C)NS(=O)(=O)Cc1cccc(Cl)c1 [Compound 599],80.6
4,CCn1c(Oc2cccc(N3CCN(C)CC3)c2)nnc1[C@@H](C)NS(=O)(=O)c1ccc(Br)cc1Br [Compound 600],100
5,CCn1c(Oc2cccc(N3CCN(C)CC3)c2)nnc1[C@@H](C)NS(=O)(=O)c1ccc(F)c(C#N)c1 [Compound 601],100
6,CCn1c(Oc2cccc(N3CCN(C)CC3)c2)nnc1[C@@H](C)NS(=O)(=O)c1cc(C)cc(C)c1 [Compound 602],107
7,CCn1c(Oc2cccc(N3CCN(C)CC3)c2)nnc1[C@@H](C)NS(=O)(=O)c1ccc(OC(F)F)cc1 [Compound 603],107
8,CCn1c(Oc2cccc(N3CCN(C)CC3)c2)nnc1[C@@H](C)NS(=O)(=O)c1cccc(OC(F)F)c1 [Compound 604],109
9,CCn1c(Oc2cccc(N3CCN(C)CC3)c2)nnc1[C@@H](C)NS(=O)(=O)c1c(F)cc(F)cc1Br [Compound 605],83.4
10,CCn1c(Oc2cccc(N3CCN(C)CC3)c2)nnc1[C@@H](C)NS(=O)(=O)c1cc(F)cc(F)c1 [Compound 606],108
11,CCn1c(Oc2cccc(N3CCN(C)CC3)c2)nnc1[C@@H](C)NS(=O)(=O)c1cc(F)c(F)c(F)c1 [Compound 608],109
12,CCn1c(Oc2cccc(N3CCN(C)CC3)c2)nnc1[C@@H](C)NS(=O)(=O)c1ccc(F)cc1Br [Compound 609],93.1
13,CCn1c(Oc2cccc(N3CCN(C)CC3)c2)nnc1[C@@H](C)NS(=O)(=O)c1ccc(C(F)(F)F)cc1Br [Compound 610],91.2
14,CCn1c(Oc2cccc(N3CCN(C)CC3)c2)nnc1[C@@H](C)NS(=O)(=O)c1cc(C(F)(F)F)ccc1Br [Compound 611],63.9
15,CCn1c(Oc2cccc(N3CCN(C)CC3)c2)nnc1[C@@H](C)NS(=O)(=O)c1ccc(C)c(F)c1 [Compound 612],114
16,CCn1c(Oc2cccc(N3CCN(C)CC3)c2)nnc1[C@@H](C)NS(=O)(=O)c1ccc(F)cc1C [Compound 613],90.9
17,CCn1c(Oc2cccc(N3CCN(C)CC3)c2)nnc1[C@@H](C)NS(=O)(=O)c1cc(Cl)ccc1F [Compound 614],77.8
18,CCn1c(Oc2cccc(N3CCN(C)CC3)c2)nnc1[C@@H](C)NS(=O)(=O)c1ccc(Br)c(F)c1 [Compound 615],110
19,CCn1c(Oc2cccc(N3CCN(C)CC3)c2)nnc1[C@@H](C)NS(=O)(=O)c1ccc(Br)cc1Cl [Compound 616],99.9
20,CCn1c(Oc2cccc(N3CCN(C)CC3)c2)nnc1[C@@H](C)NS(=O)(=O)c1c(Cl)cc(Br)cc1Cl [Compound 617],77.5
21,CCn1c(Oc2cccc(N3CCN(C)CC3)c2)nnc1[C@@H](C)NS(=O)(=O)CCCOc1ccc(OC)cc1 [Compound 618],65.4
22,CCn1c(Oc2cccc(N3CCN(C)CC3)c2)nnc1[C@@H](C)NS(=O)(=O)c1ccc(C)c(C)c1 [Compound 619],114

row,Structure (SMILES),inhibition at 10 µM [%]
1,CCn1c(Oc2cccc(N3CCN(C)CC3)c2)nnc1[C@@H](C)NS(=O)(=O)c1cc(C)ccc1F [Compound 620],88.4
2,CCn1c(Oc2cccc(N3CCN(C)CC3)c2)nnc1[C@@H](C)NS(=O)(=O)c1cccc(Cl)c1F [Compound 621],95.4
3,CCn1c(Oc2cccc(N3CCN(C)CC3)c2)nnc1[C@@H](C)NS(=O)(=O)c1ccc(F)cc1C(F)(F)F [Compound 622],58.9
4,CCn1c(Oc2cccc(N3CCN(C)CC3)c2)nnc1[C@@H](C)NS(=O)(=O)c1ccccc1OC [Compound 626],61.1
5,CCn1c(Oc2cccc(N3CCN(C)CC3)c2)nnc1[C@@H](C)NS(=O)(=O)CC1CCCCC1 [Compound 627],90
6,CCCCCCCCCCS(=O)(=O)N[C@H](C)c1nnc(Oc2cccc(N3CCN(C)CC3)c2)n1CC [Compound 628],64.4
7,CCn1c(Oc2cccc(N3CCN(C)CC3)c2)nnc1[C@@H](C)NS(=O)(=O)c1cc(C)oc1C(F)(F)F [Compound 629],101
8,CCn1c(Oc2cccc(N3CCN(C)CC3)c2)nnc1[C@@H](C)NS(=O)(=O)c1ccc2c(c1)OCCO2 [Compound 630],107
9,CCn1c(Oc2cccc(N3CCN(C)CC3)c2)nnc1[C@@H](C)NS(=O)(=O)c1sc(C)nc1C [Compound 631],95.2
10,CCn1c(Oc2cccc(N3CCN(C)CC3)c2)nnc1[C@@H](C)NS(=O)(=O)c1cccc2nsnc12 [Compound 632],59.9
11,CCn1c(Oc2cccc(N3CCN(C)CC3)c2)nnc1[C@@H](C)NS(=O)(=O)c1ccc2nsnc2c1 [Compound 633],111
12,CCn1c(Oc2cccc(N3CCN(C)CC3)c2)nnc1[C@@H](C)NS(=O)(=O)c1cccc2nonc12 [Compound 634],51
13,CCn1c(Oc2cccc(N3CCN(C)CC3)c2)nnc1[C@@H](C)NS(=O)(=O)c1ccsc1 [Compound 635],68.7
14,CCn1c(Oc2cccc(N3CCN(C)CC3)c2)nnc1[C@@H](C)NS(=O)(=O)c1ccc(-c2cnco2)s1 [Compound 636],85.7
15,CCn1c(Oc2cccc(N3CCN(C)CC3)c2)nnc1[C@@H](C)NS(=O)(=O)c1cnn(-c2ccccc2)c1C [Compound 637],50.6
16,CCn1c(Oc2cccc(N3CCN(C)CC3)c2)nnc1[C@@H](C)NS(=O)(=O)c1ccc(-c2ccnc(SC)n2)s1 [Compound 640],59.5
17,CCn1c(Oc2cccc(N3CCN(C)CC3)c2)nnc1[C@@H](C)NS(=O)(=O)c1cc(C)sc1C [Compound 641],85.2
18,CCn1c(Oc2cccc(N3CCN(C)CC3)c2)nnc1[C@@H](C)NS(=O)(=O)c1ccc(OC)cc1OC [Compound 642],85.5
19,CCn1c(Oc2cccc(N3CCN(C)CC3)c2)nnc1[C@@H](C)NS(=O)(=O)c1ccc(C(F)(F)F)cc1Cl [Compound 644],93
20,CCn1c(Oc2cccc(N3CCN(C)CC3)c2)nnc1[C@@H](C)NS(=O)(=O)c1cccc(C(C)=O)c1 [Compound 647],99
